Measured values reported in US20050003383A1, “Linoleate isomerase” (Arkion Life Sciences LLC d/b/a Bio-Technical Resources …, priority 1999, published 2005).
Where two headings read alike, the source gives them in different places.

Tests used:
[1] = target: P. acnes ATCC 6919 linoleate isomerase (Cutibacterium acnes, UniProt Q6A8X5); format: biochemical, Propionibacterium acnes; conditions: for inhibition of isomerase activity: EDTA 5 mM, 1,10-phenanthroline 1 mM, p-chloromercuribenzoate 5 μM, N-ethylmaleimide 100 μM
Procedure: Formation of CLA was determined by measuring the absorbence at 234 nm. […] Generally, the isomerase was assayed using an endpoint assay after 30 to 60 minutes incubation at room temperature. FIG. 18 (time course assay at different linoleic acid levels) and FIG. 19 (end point assay at different linoleic acid levels) show the effect of increasing substrate concentration on formation of […].

[2] = test system: linoleate isomerase from Clostridium sporogenes; assay: C. sporogenes linoleate isomerase kinetic assay, absorbence at 234 nm, partially purified enzyme; format: biochemical; conditions: for Activity / Activity (%): cofactor 50 μM, DTT 1 mM; for Activity (%): no cofactor = 100; for Vmax / Km: compound as substrate; for Km: read-out: Km; for substrate has an inhibitory effect at concentrations above: substrate concentration dependency of isomerization; for effect on isomerase activity: fatty acids and derivatives fixed at 35 μM
Procedure: In this experiment, all kinetic experiments were performed in a quartz cuvette (1-cm light-path with a magnetic stirrer) at room temperature using a HP 8452A diode array spectrophotometer. The cuvette was filled with 1 ml of incubation buffer containing 50 μg protein, 0.1 M potassium phosphate, pH7.5, 10 mM NaCl and 10% 1,2-propane diol. The isomerization was initiated by adding a small aliquot (1-2 μl) of freshly diluted substrate-stock (˜[…] linoleic acid) in 1,2-propane diol at 50 seconds. The increase in absorbence at 234 nm was monitored and recorded. […] The amount of product formed was calculated based on a molar extinction coefficient of 24,000.

[3] = Linoleate isomerase characterization (Table 7B), enzymes compared on linoleic acid; format: biochemical
Procedure: Table 7B is a summary of the kinetic data and characterization of linoleate isomerases from P. acnes (crude extract prior to DEAE purification as in Example 11, except that the Vmax was determined using enzyme purified through the chromatofocusing step as in Example 11), L. reuteri (enzyme purified through the gel filtration step as in Example 3), and C. sporogenes (enzyme purified through the gel filtration step as in Example 17), all isolated by the present inventors, and the B. fibrisolvens A-38 linoleate isomerase (crude extract; Kepler and Tove, 1967, J. Biochem. 242:5686-5692). The substrate in these experiments was linoleic acid.

[4] = isomerization of (cis, cis, cis, cis)-6, 9, 12, 15 octadecatetraenoic acid 20 PPM
[5] = isomerization of linoleic acid 10 PPM
[6] = compound as substrate at 10 PPM, activity with linoleic acid set as 100%
[7] = compound added at 35 μM, substrate LA 35 μM, pH 7.5, LA alone = 100%

[Mg] [magnesium]
effect of possible cofactors on isomerase activity ([1]; 60 minute assays): no effect

NC(=O)C1=CN([C@@H]2O[C@H](COP(=O)(O)OP(=O)(O)OC[C@H]3O[C@@H](n4cnc5c(N)ncnc54)[C@H](OP(=O)(O)O)[C@@H]3O)[C@@H](O)[C@H]2O)C=CC1 [NADPH]
Activity [2, 4]: 6.3 nmol/min
Activity (%) [2, 4]: 102%
Activity [2, 5]: 11.1 ± 1.5 nmol/min
Activity (%) [2, 5]: 105%
effect of possible cofactors on isomerase activity ([1]; 60 minute assays): No significant effect

Nc1ncnc2c1ncn2[C@@H]1O[C@H](COP(=O)(O)OP(=O)(O)OP(=O)(O)O)[C@@H](O)[C@H]1O [ATP]
Activity [2, 4]: 6.1 nmol/min
Activity (%) [2, 4]: 98%
Activity [2, 5]: 11.1 ± 1.4 nmol/min
Activity (%) [2, 5]: 105%
effect of possible cofactors on isomerase activity ([1]; 60 minute assays): No significant effect

CCCCC/C=C\C/C=C\CCCCCCCCCCCC(=O)O [(cis, cis)-13, 16 docosadienoic acid]
RELATIVE ACTIVITY % [2, 6]: 0%

Nc1ncnc2c1ncn2[C@@H]1O[C@H](COP(=O)(O)OP(=O)(O)O)[C@@H](O)[C@H]1O [ADP]
Activity [2, 4]: 5.7 nmol/min
Activity (%) [2, 4]: 92%
Activity [2, 5]: 11.1 ± 1.7 nmol/min
Activity (%) [2, 5]: 105%
effect of possible cofactors on isomerase activity ([1]; 60 minute assays): No significant effect

CCCCCCCCCCCCCCCC(=O)O [palmitic acid, hexadecanoic acid]
RELATIVE ACTIVITY % [2, 7]: 93%

CC(C)(COP(=O)(O)OP(=O)(O)OC[C@H]1O[C@@H](n2cnc3c(N)ncnc32)[C@H](O)[C@@H]1OP(=O)(O)O)[C@@H](O)C(=O)NCCC(=O)NCCS [CoA]
Activity [2, 4]: 6.5 nmol/min
Activity (%) [2, 4]: 105%

CCCCC/C=C\C/C=C\CCCCCCCCCC(=O)O [(cis, cis)-11, 14 eicosadienoic acid]
RELATIVE ACTIVITY % [2, 7]: 0%
RELATIVE ACTIVITY % [2, 6]: 20%

CCCCCC/C=C\CCCCCCCC(=O)O [palmitoleic acid, (cis)-9 hexadecenoic acid]
RELATIVE ACTIVITY % [2, 7]: 27%
RELATIVE ACTIVITY % [2, 6]: 0%
Ki ([2]; inhibition of linoleic acid isomerization, calculated from secondary plots, read-out: inhibition constants (Ki)): 33.1 µM

CC/C=C\C/C=C\C/C=C\C/C=C\CCCCC(=O)O [stearidonic acid, (cis, cis, cis, cis)-6, 9, 12, 15 octadecatetraenoic acid]
Vmax [2]: 204 nmole/min/mg protein
RELATIVE ACTIVITY % [2, 6]: 60%
Km [2]: 18.9 µM
substrate has an inhibitory effect at concentrations above [2]: > 120 µM

O[C@H](CS)[C@H](O)CS (racemic) [DTT, dithiothreitol]
Activity [2, 4]: 5.9 nmol/min
Activity (%) [2, 4]: 95%
Activity [2, 5]: 12.8 ± 3.8 nmol/min
Activity (%) [2, 5]: 121%

O=C(O)c1cc[c]([Hg][Cl])cc1 [p-chloromercuribenzoate]
inhibition of isomerase activity [1]: not inhibited

NC(=O)c1ccc[n+]([C@@H]2O[C@H](COP(=O)([O-])OP(=O)(O)OC[C@H]3O[C@@H](n4cnc5c(N)ncnc54)[C@H](O)[C@@H]3O)[C@@H](O)[C@H]2O)c1 [NAD]
Activity [2, 4]: 5.6 nmol/min
Activity (%) [2, 4]: 90%
Activity [2, 5]: 10.8 ± 1.3 nmol/min
Activity (%) [2, 5]: 102%
effect of possible cofactors on isomerase activity ([1]; 60 minute assays): No significant effect

Cc1cc2nc3c(=O)[nH]c(=O)nc-3n(C[C@H](O)[C@H](O)[C@H](O)COP(=O)(O)OP(=O)(O)OC[C@H]3O[C@@H](n4cnc5c(N)ncnc54)[C@H](O)[C@@H]3O)c2cc1C [FAD]
effect of possible cofactors on isomerase activity ([1]; 60 minute assays): No significant effect

N[C@@H](CCC(=O)N[C@@H](CS)C(=O)NCC(=O)O)C(=O)O [glutathione]
effect of possible cofactors on isomerase activity [1]: No significant effect

CCCCCCCC[C@H]1O[C@H]1CCCCCCCC(=O)O (relative stereo) [epoxystearic acid, (cis)-9:10-epoxyoctadecanoic]
RELATIVE ACTIVITY % [2, 6]: 0%

CCN1C(=O)C=CC1=O [N-ethylmaleimide]
inhibition of isomerase activity [1]: not inhibited

CCCCC/C=C\C/C=C\CCCCCCCC(=O)OC [methyl linoleate, (cis, cis)-linoleic acid methyl ester]
serves as substrate [2]: do not serve as substrates
RELATIVE ACTIVITY % [2, 7]: 69%
RELATIVE ACTIVITY % [2, 6]: 0%
effect on isomerase activity [2]: inhibitors

NC(=O)c1ccc[n+]([C@@H]2O[C@H](COP(=O)([O-])OP(=O)(O)OC[C@H]3O[C@@H](n4cnc5c(N)ncnc54)[C@H](OP(=O)(O)O)[C@@H]3O)[C@@H](O)[C@H]2O)c1 [NADP]
effect of possible cofactors on isomerase activity ([1]; 60 minute assays): No significant effect

CCCCC/C=C/C/C=C/CCCCCCCC(=O)O [linolelaidic acid, (trans, trans)-9, 12-octadecadienoic acid]
RELATIVE ACTIVITY % [2, 7]: 19%
RELATIVE ACTIVITY % [2, 6]: 0%

NC(=O)C1=CN([C@@H]2O[C@H](COP(=O)(O)OP(=O)(O)OC[C@H]3O[C@@H](n4cnc5c(N)ncnc54)[C@H](O)[C@@H]3O)[C@@H](O)[C@H]2O)C=CC1 [NADH]
Activity [2, 4]: 6.4 nmol/min
Activity (%) [2, 4]: 103%
Activity (%) [2, 5]: 99%
effect of possible cofactors on isomerase activity ([1]; 60 minute assays): No significant effect

CCCCCCCC/C=C\CCCCCCCCCCCC(=O)O [erucic acid, (cis)-13-docosaenoic acid]
RELATIVE ACTIVITY % [2, 6]: 0%

CCCCC/C=C\C/C=C\C/C=C\CCCCC(=O)O [γ-linolenic acid, (cis, cis, cis)-6,9, 12-octadecatrienoic acid]
Vmax [2]: 236 nmole/min/mg protein
RELATIVE ACTIVITY % [2, 6]: 77%
Km [2]: 23.8 µM
substrate has an inhibitory effect at concentrations above [2]: > 15 µM

[Ca] [Calcium]
effect of possible cofactors on isomerase activity ([1]; 60 minute assays): no effect

CCCCC/C=C\C/C=C\CCCCCCCCO [linoleyl alcohol, (cis, cis)-9, 12-octadecadien-1-ol]
serves as substrate [2]: do not serve as substrates
RELATIVE ACTIVITY % [2, 7]: 81%
RELATIVE ACTIVITY % [2, 6]: 0%
effect on isomerase activity [2]: inhibitors

CCCCC/C=C\C/C=C\C/C=C\CCCCCCC(=O)O [(cis, cis, cis)-8, 11, 14 eicosatrienoic acid]
RELATIVE ACTIVITY % [2, 6]: 0%

CCCCCCCCCCCCCCCCCC(=O)O [stearic acid, octadecanoic acid]
RELATIVE ACTIVITY % [2, 7]: 107%

Cc1cc2nc3c(=O)[nH]c(=O)nc-3n(C[C@H](O)[C@H](O)[C@H](O)COP(=O)(O)O)c2cc1C [FMN]
effect of possible cofactors on isomerase activity ([1]; 60 minute assays): No significant effect

CCCCC/C=C\C/C=C\CCCCCCCCCC(=O)OC [(cis, cis)-11, 14 eicosadienoic acid methyl ester]
RELATIVE ACTIVITY % [2, 6]: 0%

B1: P. acnes: (trans, cis)-10,12-linoleate isomerase from Propionibacterium acnes ATCC 6919, SEQ ID NO:61 (protein)
chain: MSISKDSRIAIIGAGPAGLAAGMYLEQAGFHDYTILERTDHVGGKCHSPNYHGRRYEMGAIMGVPSYDTIQEIMDRTGDKVDGPKLRREFLHEDGEIYVPEKDPVRGPQVMAAVQKLGQLLATKYQGYDANGHYNKVHEDLMLPFDEFLALNGCEAARDLWINPFTAFGYGHFDNVPAAYVLKYLDFVTMMSFAKGDLWTWADGTQAMFEHLNATLEHPAERNVDITRITREDGKVHIHTTDWDRESDVLVLTVPLEKFLDYSDADDDEREYFSKIIHQQYMVDACLVKEYPTISGYVPDNMRPERLGHVMVYYHRWADDPHQIITTYLLRNHPDYADKTQEECRQMVLDDMETFGHPVEKIIEEQTWYYFPHVSSEDYKAGWYEKVEGMQGRRNTFYAGEIMSFGNFDEVCHYSKDLVTRFFV
modifications: Propionibacterium acnes
Enzyme Solubility [3]: S
CLA Isomer ([3]; CLA isomer produced from linoleic acid): 10,12
Optimal pH ([3]; substrate linoleic acid): 7.3
Km ([3]; substrate linoleic acid, crude extract): 17.2 µM
Vmax ([3]; substrate linoleic acid, purified enzyme): 478^5 nmol/min/mg
